# Laboratory results reported in patent US20250325645A1, “BOVINE VIRAL DIARRHEA VIRUS IMMUNOGENIC COMPOSITIONS AND METHODS OF USE THEREOF” (KANSAS STATE UNIVERSITY RESEARCH FOUNDATION, priority 2021, published 2025).
# Tested on: CD8+ T cells from BVDV-immunized steers
# Assay: MHC I blocking ELISPOT assay
# Settings: steers 2539 and 2593; 2.5 μg/ml peptide; mAbs H58A and PT85A at 1.0 μg/ml vs IgG2a isotype control; p<0.05
# Protocol: Co-cultures of CD8+ T cells and autologous CD14+ monocytes from one TGAC-immunized steer (2539) and one A125-immunized steer (2593), were incubated with 2.5 μg/ml of peptide in the presence of either the two anti-bovine MHC I mAbs or IgG2a isotype control. The IFN-γ+CD8+ T cell responses in the presence or absence of anti-bovine MHC I mAbs were reported as SFC per million CD8+ T cells described as above.
# The results from MHC I blocking ELISPOT assay were analyzed by Wilcoxon test in GraphPad Prism 7 (Version 7.04, GraphPad Software, Inc. La Jolla, CA). The significance of the difference in peptide-specific IFN-γ+CD8+ T cell responses in the absence or presence of anti-bovine MHC I mAbs was determined by a non-parametric test and the level of significance was set at p<0.05.
row,Sequence,IFN-γ+CD8+ T cell recall responses in the presence of anti-bovine MHC I mAbs
1,FGAYAASPY [Peptide 86],significantly reduced
2,GPVYHRAPL [Peptide 61],significantly reduced
3,GSVWNLGKY [Peptide 56],significantly reduced
4,SEQKRTLLM [Peptide 37],significantly reduced
5,YFEPRDNYF [Peptide 100],significantly reduced
6,YYDDNLNEI [Peptide 64],significantly reduced
